Legend:
Format in all cases: functional
Staphylococcus aureus [1] = test: Antibacterial activity against Staphylococcus aureus ATCC 6538 incubated for 24 hrs by CLSI broth microdilution method
Escherichia coli [2] = test: Antibacterial activity against Escherichia coli ATCC 25922 assessed as reduction in bacterial growth incubated for 24 hrs by CLSI broth microdilution method; details: Escherichia coli, ATCC 25922, 24 h, read-out: MIC
Klebsiella pneumoniae [3] = test: Antibacterial activity against Klebsiella pneumoniae ATCC 10031 assessed as reduction in bacterial growth incubated for 24 hrs by CLSI broth microdilution method
Pseudomonas aeruginosa [4] = test: Antibacterial activity against Pseudomonas aeruginosa ATCC 9027 assessed as reduction in bacterial growth incubated for 24 hrs by CLSI broth microdilution method
Proteus sp. = test: Antibacterial activity against […] resistant Proteus sp. clinical isolate 17 assessed as reduction in bacterial growth incubated for 24 hrs by CLSI broth microdilution method; details: Proteus sp. (in: enterobacteria)
Klebsiella sp. [5] = test: Antibacterial activity against […] resistant Klebsiella sp. clinical isolate 12 assessed as reduction in bacterial growth incubated for 24 hrs by CLSI broth microdilution method
Klebsiella sp. [6] = test: Antibacterial activity against […] resistant Klebsiella sp. clinical isolate 11 assessed as reduction in bacterial growth incubated for 24 hrs by CLSI broth microdilution method
Pseudomonas = test: Antibacterial activity against methicillin- resistant Pseudomonas spp. clinical isolate 6 assessed as reduction in bacterial growth incubated for 24 hrs by CLSI broth microdilution method
Acinetobacter [7] = test: Antibacterial activity against […] resistant Acinetobacter spp. clinical isolate 5 assessed as reduction in bacterial growth incubated for 24 hrs by CLSI broth microdilution method
Acinetobacter [8] = test: Antibacterial activity against […] resistant Acinetobacter spp. clinical isolate 3 assessed as reduction in bacterial growth incubated for 24 hrs by CLSI broth microdilution method
Acinetobacter [9] = test: Antibacterial activity against […] resistant Acinetobacter spp. clinical isolate 1 assessed as reduction in bacterial growth incubated for 24 hrs by CLSI broth microdilution method
[10] = Antibacterial activity against […] resistant Moraxella sp.829 clinical isolate assessed as reduction in bacterial growth incubated for 24 hrs by CLSI broth microdilution method; details: Moraxella catarrhalis
[11] = Antibacterial activity against […] resistant Moraxella sp.765 clinical isolate assessed as reduction in bacterial growth incubated for 24 hrs by CLSI broth microdilution method; details: Moraxella catarrhalis
[12] = Antibacterial activity against […] resistant Moraxella sp.764 clinical isolate assessed as reduction in bacterial growth incubated for 24 hrs by CLSI broth microdilution method; details: Moraxella catarrhalis
Staphylococcus aureus [13] = test: Antibacterial activity against methicillin- resistant Staphylococcus aureus 25 clinical isolate assessed as reduction in bacterial growth incubated for 24 hrs by CLSI broth microdilution method
Staphylococcus aureus [14] = test: Antibacterial activity against methicillin- resistant Staphylococcus aureus 2020 clinical isolate assessed as reduction in bacterial growth incubated for 24 hrs by CLSI broth microdilution method
[15] = tested on: Staphylococcus intermedius; test: Antibacterial activity against methicillin- resistant Staphylococcus intermedius 1143 clinical isolate assessed as reduction in bacterial growth incubated for 24 hrs by CLSI broth microdilution method
Staphylococcus aureus [16] = test: Antibacterial activity against methicillin- resistant Staphylococcus aureus 983 clinical isolate assessed as reduction in bacterial growth incubated for 24 hrs by CLSI broth microdilution method
Staphylococcus aureus [17] = test: Antibacterial activity against methicillin- resistant Staphylococcus aureus 967 clinical isolate assessed as reduction in bacterial growth incubated for 24 hrs by CLSI broth microdilution method
[18] = tested on: Staphylococcus haemolyticus; test: Antibacterial activity against methicillin- resistant Staphylococcus haemolyticus 837 assessed as reduction in bacterial growth incubated for 24 hrs by CLSI broth microdilution method
Pseudomonas aeruginosa [19] = test: Bactericidal activity against Pseudomonas aeruginosa ATCC 27853 assessed as reduction in bacterial growth incubated for 24 hrs followed by replating on MH broth and further incubated for 24 hrs by CLSI broth microdilution method
Klebsiella pneumoniae [20] = test: Bactericidal activity against Klebsiella pneumoniae ATCC 1813 assessed as reduction in bacterial growth incubated for 24 hrs followed by replating on MH broth and further incubated for 24 hrs by CLSI broth microdilution method
Escherichia coli [21] = test: Bactericidal activity against Escherichia coli ATCC 25922 assessed as reduction in bacterial growth incubated for 24 hrs followed by replating on MH broth and further incubated for 24 hrs by CLSI broth microdilution method
Bacillus subtilis [22] = test: Bactericidal activity against Bacillus subtilis 168 assessed as reduction in bacterial growth incubated for 24 hrs followed by replating on MH broth and further incubated for 24 hrs by CLSI broth microdilution method; details: Bacillus subtilis, 168, 24 h
[23] = tested on: Staphylococcus epidermidis; test: Bactericidal activity against Staphylococcus epidermidis assessed as reduction in bacterial growth incubated for 24 hrs followed by replating on MH broth and further incubated for 24 hrs by CLSI broth microdilution method; details: Staphylococcus epidermidis, read-out: MBC
Staphylococcus aureus [24] = test: Bactericidal activity against Staphylococcus aureus ATCC 29213 assessed as reduction in bacterial growth incubated for 24 hrs followed by replating on MH broth and further incubated for 24 hrs by CLSI broth microdilution method; details: Staphylococcus aureus, ATCC 29213; time 48 hrs; read-out: MBC
Bacillus subtilis [25] = test: Antibacterial activity against Bacillus subtilis 168 assessed as reduction in bacterial growth incubated for 24 hrs by CLSI broth microdilution method
Staphylococcus aureus [26] = test: Antibacterial activity against Staphylococcus aureus ATCC 29213 by CLSI broth microdilution method
Staphylococcus aureus [27] = test: Bactericidal activity against Staphylococcus aureus ATCC 29213
Escherichia coli [28] = test: Bactericidal activity against Escherichia coli ATCC 25922

CCCCCCCCOc1c2cc(C[N+](C)(C)CCN)cc1Cc1cc(C[N+](C)(C)CCN)cc(c1OCCCCCCCC)Cc1cc(C[N+](C)(C)CCN)cc(c1OCCCCCCCC)Cc1cc(C[N+](C)(C)CCN)cc(c1OCCCCCCCC)C2.[Cl-].[Cl-].[Cl-].[Cl-]
MIC (Staphylococcus aureus [1]): > 1000 µg/mL | MIC (Escherichia coli [2]): > 1000 µg/mL | MIC (Klebsiella pneumoniae [3]): > 1000 µg/mL | MIC (Pseudomonas aeruginosa [4]): > 1000 µg/mL

CCCCCCCC[N+](C)(C)CCCNC(=O)COc1c2cc(C(C)(C)C)cc1Sc1cc(C(C)(C)C)cc(c1OCC(=O)NCCC[N+](C)(C)CCCCCCCC)Sc1cc(C(C)(C)C)cc(c1OCC(=O)NCCC[N+](C)(C)CCCCCCCC)Sc1cc(C(C)(C)C)cc(c1OCC(=O)NCCC[N+](C)(C)CCCCCCCC)S2.[Cl-].[Cl-].[Cl-].[Cl-]
MIC (Proteus sp.): 64 µg/mL | MIC (Klebsiella sp. [5]): 16 µg/mL | MIC (Klebsiella sp. [6]): 16 µg/mL | MIC (Pseudomonas): 16 µg/mL | MIC (Acinetobacter [7]): 16 µg/mL | MIC (Acinetobacter [8]): 16 µg/mL | MIC (Acinetobacter [9]): 8 µg/mL | MIC [10]: 16 µg/mL | MIC [11]: 16 µg/mL | MIC [12]: 16 µg/mL | MIC (Staphylococcus aureus [13]): 4 µg/mL | MIC (Staphylococcus aureus [14]): 16 µg/mL | MIC [15]: 2 µg/mL | MIC (Staphylococcus aureus [16]): 16 µg/mL | MIC (Staphylococcus aureus [17]): 16 µg/mL | MIC [18]: 16 µg/mL | MBC (Pseudomonas aeruginosa [19]): 32 µg/mL | MBC (Klebsiella pneumoniae [20]): 32 µg/mL | MBC (Escherichia coli [21]): 16 µg/mL | MBC (Bacillus subtilis [22]): 16 µg/mL | MBC [23]: 2 µg/mL | MBC (Staphylococcus aureus [24]): 1 µg/mL | MIC (Bacillus subtilis [25]; 24 h): 4 µg/mL | MIC (Bacillus subtilis [25]; Bacillus subtilis, 168, 24 h, read-out: MIC): 2 µg/mL

CCCOc1c2cc(C[n+]3ccn(C)c3)cc1Cc1cc(C[n+]3ccn(C)c3)cc(c1OCCC)Cc1cc(C[n+]3ccn(C)c3)cc(c1OCCC)Cc1cc(C[n+]3ccn(C)c3)cc(c1OCCC)C2.[Cl-].[Cl-].[Cl-].[Cl-]
MIC (Staphylococcus aureus [1]): ≤ 10 µg/mL | MIC (Escherichia coli [2]): ≤ 10 µg/mL | MIC (Klebsiella pneumoniae [3]): ≤ 10 µg/mL | MIC (Pseudomonas aeruginosa [4]): 50 µg/mL

CCCOc1c2cc(C[N+](C)(C)C)cc1Cc1cc(C[N+](C)(C)C)cc(c1OCCC)Cc1cc(C[N+](C)(C)C)cc(c1OCCC)Cc1cc(C[N+](C)(C)C)cc(c1OCCC)C2.[Cl-].[Cl-].[Cl-].[Cl-]
MIC (Staphylococcus aureus [26]): 16 µg/mL | MBC (Staphylococcus aureus [27]): 16 µg/mL | MBC (Escherichia coli [28]): 16 µg/mL | MIC (Escherichia coli [2]): 16 µg/mL

CCCOc1c2cc(C[N+](C)(C)CCN)cc1Cc1cc(C[N+](C)(C)CCN)cc(c1OCCC)Cc1cc(C[N+](C)(C)CCN)cc(c1OCCC)Cc1cc(C[N+](C)(C)CCN)cc(c1OCCC)C2.[Cl-].[Cl-].[Cl-].[Cl-]
MIC (Staphylococcus aureus [1]): ≤ 10 µg/mL | MIC (Escherichia coli [2]): 500 µg/mL | MIC (Klebsiella pneumoniae [3]): 500 µg/mL | MIC (Pseudomonas aeruginosa [4]): 50 µg/mL

CCCOc1c2cc(C[N+](C)(C)CCO)cc1Cc1cc(C[N+](C)(C)CCO)cc(c1OCCC)Cc1cc(C[N+](C)(C)CCO)cc(c1OCCC)Cc1cc(C[N+](C)(C)CCO)cc(c1OCCC)C2.[Cl-].[Cl-].[Cl-].[Cl-]
MIC (Staphylococcus aureus [26]): 16 µg/mL | MBC (Staphylococcus aureus [27]): 16 µg/mL | MBC (Escherichia coli [28]): 256 µg/mL | MIC (Staphylococcus aureus [1]): ≤ 10 µg/mL | MIC (Escherichia coli [2]): 32 µg/mL | MIC (Klebsiella pneumoniae [3]): 100 µg/mL | MIC (Pseudomonas aeruginosa [4]): 1000 µg/mL

From ChEMBL document CHEMBL4673355, “Thiacalixarene based quaternary ammonium salts as promising antibacterial agents” (Bioorg Med Chem, 2021)
